In patent US5500427A, “Cyclic compounds and their use” (Takeda Chemical Industries, Ltd., priority 1992, dated 1996):

What was measured:
angiotensin II receptor = target: T1, angiotensin II receptor (Bos taurus, UniProt P25104); assay: Inhibitory Effect of Binding of Angiotensin-II to Angiotensin II Receptor (radioreceptor assay); conditions: 125I-angiotensin II, bovine adrenal cortex membrane, room temperature, one hour; for inhibition at 1 µM: 10^-6 M; for inhibition at 0.1 µM: 10^-7 M
T1 construct: An A-II receptor membrane fraction was prepared from bovine adrenal cortex; from tissue; host or cells: bovine adrenal cortex membrane fraction
T1 sequence (P25104 1-359): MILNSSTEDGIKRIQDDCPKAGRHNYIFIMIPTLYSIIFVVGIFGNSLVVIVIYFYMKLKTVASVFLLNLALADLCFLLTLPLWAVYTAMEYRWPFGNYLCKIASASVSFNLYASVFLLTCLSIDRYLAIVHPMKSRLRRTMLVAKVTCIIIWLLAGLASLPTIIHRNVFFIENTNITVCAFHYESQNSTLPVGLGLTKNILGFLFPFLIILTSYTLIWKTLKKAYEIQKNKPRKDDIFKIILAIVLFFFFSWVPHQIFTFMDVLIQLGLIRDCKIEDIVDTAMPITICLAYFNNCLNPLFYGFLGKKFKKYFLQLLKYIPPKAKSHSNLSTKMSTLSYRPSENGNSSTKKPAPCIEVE
Method: Inhibitory Effect of Binding of Angiotensin-II to Angiotensin II Receptor
An experiment of inhibition on the binding of angiotensin II (A-II) receptor was performed by modified the method of Douglas et al. [Endocrinology, 102, 685-696 (1978)]. An A-II receptor membrane fraction was prepared from bovine adrenal cortex.
The compound of the present invention (10^-6 M or 10^-7 M) and ^125 I-angiotensin II (^125 I-AII) (2.44 KBq/50 microliter) were added to the receptor membrane fraction, and the mixture was incubated at room temperature for one hour. The receptor-bound and free I-AII were separated through a filter (Whatman GF/B filter), and the radioactivity of ^125 I-AII bound to the receptor was determined.

[1] = test system: AII-induced Pressor Response; assay: Inhibitory Effect of the Compound of the Present Invention on AII-induced Pressor Response; format: in vivo; conditions: A-II 100 ng/kg i.v., male Jcl:SD rats
Excerpt: Inhibitory Effect of the Compound of the Present Invention on AII-induced Pressor Response
Jcl:SD rats (9 week old, male) were used. On the previous day of the experiment, rats were applied with cannulation into the femoral artery and vein under anesthesia with pentobarbital Na. These animals were fasted but allowed to access freely to drinking water until the experiment was started. Just on the day of conducting the experiment, the artery cannula was connected with a blood-pressure transducer, and the average blood pressure was recorded by polygraph. Before administration of the drug, the pressor action due to intravenous administration of A-II (100 ng/kg) as the control was determined. The drugs were orally administered, then, at each point of the determination, A-II was administered intravenously, and the pressor action was similarly determined. By comparing the pressor action before and after administration of the drug, the percent inhibition by the drug was evaluated.

Row | inhibition at 1 µM (angiotensin II receptor) | inhibition at 0.1 µM (angiotensin II receptor) | SMILES | Pressor Response [p.o.] (percent inhibition of A-II pressor action) ([1]; 0.3 mg/kg p.o.) | Pressor Response [p.o.] (percent inhibition of A-II pressor action) ([1]; 1 mg/kg p.o.)
1 | 52% | 17% | CCCN(Cc1ccc(-c2ccccc2-c2noc(=O)[nH]2)cc1)c1ncccc1C(=O)O [Example 2] | +++ (+++ ≥ 70%) | +++ (+++ ≥ 70%)
2 | 61% | 20% | CCCN(Cc1ccc(-c2ccccc2-c2nsc(=O)[nH]2)cc1)c1ncccc1C(=O)O [Example 4] | – | +++ (+++ ≥ 70%)
3 | 55% | 16% | CCCCN(Cc1ccc(-c2ccccc2-c2nc(=O)o[nH]2)cc1)c1ncccc1C(=O)O [Example 6, 2-[N-butyl-N-[2'-(2,5-dihydro-5-oxo-1,2,4-oxadiazol-3-yl)biphenyl-4-yl]methylamino]pyridine-3-carboxylic acid] | – | +++ (+++ ≥ 70%)
